The values below come from US4361515A, “Antihyperlipemic dihydro-ML-236B derivatives, their preparation and use” (Sankyo Company, Limited, priority 1980, dated 1982).

Series [1] in a line: Toxicity in mice, intraperitoneal administration. As to conditions: mouse, in vivo, ip, read-out: dose at which mice survive.
In series [2] the test system is synthesis of cholesterol in a rat liver. As to the kind of experiment: Inhibitory activity against the biosynthesis of cholesterol in a rat liver. Format: biochemical. The method, then: 10. Inhibitory activity against the biosynthesis of cholesterol: a 50% inhibition of the synthesis of cholesterol in a rat liver is observed at a concentration of 0.04 μg/ml.
Series [3] is described as follows: Solubility in organic solvents. The class given is physicochemical.

The structures appear in SMILES notation.

Consider `CCC(C)C(=O)OC1CCC(O)C2=CC(O)C(C)C(CCC3CC(O)CC(=O)O3)C21` (centres unmarked) [3',5'-dihydroxy-(DH.ML-236B), 3',5'-Dihydroxy-(DH.ML-236B)], for which the MTD in series [1] was at most 1 mg/kg.
Take `CC1C=C2C=CC(C)C(CCC3CC(O)CC(=O)O3)C2C(O)C1` (centres unmarked) [MB-530A]: the “concentration at which a 50% inhibition of the synthesis of cholesterol is observed” value in series [2] was determined as 0.04 µg/mL. In addition, the Solubility result in series [3] (benzene) is given as “soluble”; in series [3] (hexane and petroleum ether), “insoluble”; in series [3] (methanol, ethanol, acetone, ethyl acetate, chloroform and carbon tetrachloride) it was “readily soluble”.
